The source of these data is US12569506B2, “Methods of treating osteonecrosis with LLP2A-bisphosphonate compounds” (The Regents of the University of California, priority 2016, dated 2026).

The test system of data set [1] is dexamethasone-treated mice. Put plainly: Empty lacunae density in distal femoral epiphysis, 90 day model. It counts as in vivo, BALB/c mice. Particulars: distal femoral epiphysis, day 90; Dex only vs LLP2A-Ale 250, 500, 750 μg/kg groups (FIG. 8A-B). How it is done:
FIG. 8A-8B. Empty lacunae density of femurs from in dexamethasone-treated mice. Mice treated with placebo (PL), dexamethasone alone (Dex), Dex+250 μg/kg LLP2A-Ale, Dex+500 μg/kg LLP2A-Ale, or Dex+750 μg/kg LLP2A-Ale as described above for FIG. 7 were assessed for empty lacunae density within the distal femoral epiphysis region. Empty lacunae density was calculated by determining the number of empty lacunae in the entire distal femoral epiphysis region divided by the total number of osteocytes within the same region for each specimen. In the Dex only group, 75% of the samples had 10% or more empty lacunae, as compared to 44-62% of the samples in LLP2A-Ale-treated groups. A higher number of LLP2A-Ale 250 μg/kg, LLP2A-Ale 500 μg/kg, and LLP2A-Ale 750 μg/kg—treated samples had less than 10% empty lacunae as compared to Dex only treatment.
Both the right and left distal femurs were fixed in 10% neutral buffered formalin and were shaken for 3 days, then decalcified in 5% EDTA until the bones were fully decalcified. The specimens were then processed in ascending concentrations of ethanol and embedded in paraffin. Tissue sections were cut into 5 microns sections, stained with hematoxylin and eosin and evaluated for the presence of osteonecrosis by bright field microscopy at 20× magnification. […] Osteonecrosis was detected using modified criteria reported by Yang el al., (a mouse model for glucocorticoid-induced osteonecrosis: Effect of a steroid holiday. J Orthop Res. 2009; 27:169-75) which defines osteonecrosis as requiring all of the following changes: (1) empty lacunae, (2) pyknotic osteocyte nuclei in areas of empty lacunae and necrosis of adjacent bone marrow, (3) presence of excessive fat cells in the bone marrow, (4) cartilage degradation and (5) presence of fibrin thrombi in the blood vessels. In addition, trabecular bone volume, adipose volume, sinusoid volume and osteoblast surface at the distal femoral epiphyses were measured. Empty lacunae density was calculated by empty lacunae/total osteocytes within the entire distal femoral epiphysis region for each sample. […]

Data set [2] has as its system dexamethasone-treated mice. Description: Histological evaluation (H&E) of femoral epiphyses, 90 day model. The data set is classed as in vivo, BALB/c mice. The following applies: Dex 4 mg/L in drinking water, day 90, femoral epiphyses (FIG. 9C-9F). On the procedure: FIG. 9A-9F. Histological evaluation of femurs from placebo- or dexamethasone-treated mice. Mice were treated with placebo (PL) or dexamethasone alone (Dex) as described above for FIG. 7. All mice were euthanized at day 90. Right and left distal femurs were fixed in 10% neutral buffer formalin and decalcified. The specimens were dehydrated, embedded in paraffin, cut into 5 micron sections and H&E stained. The sections were scored by two experienced histologists and then a consensus reading was performed by two additional histologists. FIG. 9A-9B: 4× (A) and 20× (B) magnifications of representative proximal femoral epiphyses in mice treated with placebo. (C) 4× magnification of a representative proximal femoral epiphyses in mice treated with dexamethasone (Dex) alone. FIGS. 9D, 9E, and 9F: 20× magnifications of representative proximal femoral epiphyses in mice treated with dexamethasone (Dex) alone.
FIG. 11A-11F. Histological evaluation of femurs from LLP2A-Ale-treated mice. Mice were treated with Dex+250 μg/kg LLP2A-Ale as described above for FIG. 7. All mice were euthanized at day 90. Right and left distal femurs were fixed in 10% neutral buffer formalin and decalcified. The specimens were dehydrated, embedded in paraffin, cut into 5 micron sections and H&E stained. The sections were scored by two experienced histologists and then a consensus reading was performed by two additional histologists. (A, D): 4× magnifications of representative proximal femoral epiphyses in mice treated with Dex+LLP2A-Ale. (B, C, E, F): 20× magnifications of representative proximal femoral epiphyses in mice treated with Dex+LLP2A-Ale.
Both the right and left distal femurs were fixed in 10% neutral buffered formalin and were shaken for 3 days, then decalcified in 5% EDTA until the bones were fully decalcified. The specimens were then processed in ascending concentrations of ethanol and embedded in paraffin. Tissue sections were cut into 5 microns sections, stained with hematoxylin and eosin and evaluated for the presence of osteonecrosis by bright field microscopy at 20× magnification. Experimental methods are also described in Mohan et al., Calif Tissue Int (2016) doi:10.1007/s00223-016-0195-6, which is incorporated herein by reference in its entirety for all purposes. Osteonecrosis was detected using modified criteria reported by Yang el al., (a mouse model for glucocorticoid-induced osteonecrosis: Effect of a steroid holiday. J Orthop Res. 2009; 27:169-75) which defines osteonecrosis as requiring all of the following changes: (1) empty lacunae, (2) pyknotic osteocyte nuclei in areas of empty lacunae and necrosis of adjacent bone marrow, (3) presence of excessive fat cells in the bone marrow, (4) cartilage degradation and (5) presence of fibrin thrombi in the blood vessels. In addition, trabecular bone volume, adipose volume, sinusoid volume and osteoblast surface at the distal femoral epiphyses were measured. Empty lacunae density was calculated by empty lacunae/total osteocytes within the entire distal femoral epiphysis region for each sample. Each section was scored by two experienced histologists, then a consensus reading was performed by two additional experienced histologists.

Data set [3] can be described thus: Body weight, 90 day model. It counts as in vivo, BALB/c mice. Particulars: all Dex treated animals vs placebo, day 7 up to day 90 (p<0.05). On the procedure:
All the mice were euthanized at day 90. The body weights of all the study animals were assessed each week. If the study animals had 10% loss of body weight compared to the previous week, the dose of dexamethasone was reduced to 2 mg/L, until weight gain was observed. All of the animals were injected with calcein (30 mg/kg) and alizarin red (20 mg/kg) at 7 and 2 days before euthanization.

For data set [4], the system named is dexamethasone-treated mice. Description: 30 and 45 day prevention study: incidence of glucocorticoid-induced osteonecrosis. The data set is classed as in vivo, BALB/c mice. The following applies: for Incidence of glucocorticoid-induced osteonecrosis: Dex alone 4 mg/L in drinking water; for Prevalence/incidence of glucocorticoid-induced osteonecrosis lesions (in words): 30 or 45 days, Dex + LLP2A-Ale 250 or 500 μg/kg, or Dex + 40 μg/kg hPTH five times a week (FIG. 12). How it is done:
FIG. 12. Reduction in incidence of glucocorticoid-induced osteonecrosis in mice treated with recombinant LLP2A-Ale. Mice were randomized into placebo (PL) (fresh water), dexamethasone (Dex) 4 mg/l in drinking water, Dex+250 μg/kg LLP2A-Ale, Dex+500 μg/kg LLP2A-Ale, or Dex+40 μg/kg hPTH (1-34) groups for a 30 day treatment period or a 45 day treatment period. The incidence of Dex-induced osteonecrosis was 57% on day 30 and 73% on day 45.
(§1) The efficacy of LLP2A-Ale and hPTH (1-34) was evaluated over a 30 and 45 day study using a mouse model of glucocorticoid-induced osteonecrosis. Seven week-old male BALB/c mice were randomized into Placebo group (fresh water), glucocorticoid only (4 mg/L dexamethasone (Dex) in drinking water), Dex+250 μg/kg LLP2A-Ale, Dex+500 μg/kg LLP2A-Ale, or Dex+40 μg/kg hPTH (administered five times a week) for 30 or 45 days. At day 30 or 45, the mice were sacrificed. Study endpoints included histological evidence of osteonecrosis, bone mass, and prevalent blood vessels (CD31 and Endomucin expression) in the distal femur, and was performed as set forth in Example 2. Non-parametric Kruskal-Wallis tests were used to determine the differences between the groups.

Data set [5] deals with dexamethasone-treated mice. Description: 30 and 45 day prevention study: trabecular bone histology of distal femur epiphyses. The data set is classed as in vivo, BALB/c mice. On the procedure: as §1
The subject of data set [6] is CD31 and Endomucin expression. Put plainly: 30 and 45 day prevention study: blood vessels in the distal femur (CD31 and Endomucin expression). It counts as in vivo, BALB/c mice. On the procedure: as §1
Data set [7] has as its target α4β1 integrin (Homo sapiens, UniProt P05556+P13612). The following applies: Liu 2006; Peng 2006; DeNardo 2009; cited from earlier work.
Data set [8] has as its system glucocorticoid-treated mice. Description: 56 day mouse model of glucocorticoid-induced osteonecrosis: femur blood vessel / vascular density by microCT. The data set is classed as in vivo. On the procedure: FIG. 2. Blood vessel density of femurs from glucocorticoid-treated mice. 4 month old male mice were treated glucocorticoid (“GC”) or placebo for 56 days. At day 28 a group of glucocorticoid-treated mice were treated with LLP2A-Ale or PTH for an additional 28 days.
FIG. 3. Vascular density of femurs from glucocorticoid-treated mice. 4 month old male mice were treated with glucocorticoid or placebo for 56 days. At day 28 a group of glucocorticoid-treated mice were treated with LLP2A-Ale or PTH for an additional 28 days. At day 56 animals were given a contrast agent and then sacrificed and then the animals femurs were decalcified and then scanned by microCT.
The efficacy of LLP2A-Ale was evaluated using a mouse model of glucocorticoid-induced osteonecrosis. 4-month-old male mice were treated for 56 days with glucocorticoids. At day 28, a group of mice was treated with either LLP2A-Ale or PTH for an additional 28 days. Blood vessel density of the femur was measured after sacrifice by microCT according to published methods. […] Vascular density of the femurs of glucocorticoid-treated mice subsequently treated with LLP2A-Ale or PTH was also assessed by giving the mice a contrast agent, then sacrificing the mice, decalcifying the femurs, and scanning the femurs by microCT. […] Without being bound to a particular theory, it is believed that LLP2A-Ale promotes increased vascularity by bringing MSCs to the bone that is turning over with osteonecrosis, which stimulates new blood vessel formation, which in turn is needed to stimulate new bone formation in the osteonecrotic bone.

For data set [9], the system named is glucocorticoid-treated mice. Description: Trabecular bone volume in glucocorticoid-treated mice. Particulars: GC 28 days then treatment; change from day 28 to 56, measured in vivo (FIG. 6 left). The data set is classed as in vivo. On the procedure: FIG. 6. Trabecular bone volume in glucocorticoid-treated mice. Mice were treated for 28 days with glucocorticoid (GC), then treated with either LLP2A-Ale, PTH, or LLP2A-Ale+PTH. The outcome measure was the change in trabecular bone mass from day 28 to 56, measured in vivo at the distal femur (left panel) and change in trabecular bone mass for the vertebral trabecular bone volume (right panel).
Changes in trabecular bone mass during the treatment period for the distal femur and vertebral trabecular bone volume were measured.

“Also recorded” adds a separate entry of the source.

α4β1 integrin, sequence (P13612 34-1032): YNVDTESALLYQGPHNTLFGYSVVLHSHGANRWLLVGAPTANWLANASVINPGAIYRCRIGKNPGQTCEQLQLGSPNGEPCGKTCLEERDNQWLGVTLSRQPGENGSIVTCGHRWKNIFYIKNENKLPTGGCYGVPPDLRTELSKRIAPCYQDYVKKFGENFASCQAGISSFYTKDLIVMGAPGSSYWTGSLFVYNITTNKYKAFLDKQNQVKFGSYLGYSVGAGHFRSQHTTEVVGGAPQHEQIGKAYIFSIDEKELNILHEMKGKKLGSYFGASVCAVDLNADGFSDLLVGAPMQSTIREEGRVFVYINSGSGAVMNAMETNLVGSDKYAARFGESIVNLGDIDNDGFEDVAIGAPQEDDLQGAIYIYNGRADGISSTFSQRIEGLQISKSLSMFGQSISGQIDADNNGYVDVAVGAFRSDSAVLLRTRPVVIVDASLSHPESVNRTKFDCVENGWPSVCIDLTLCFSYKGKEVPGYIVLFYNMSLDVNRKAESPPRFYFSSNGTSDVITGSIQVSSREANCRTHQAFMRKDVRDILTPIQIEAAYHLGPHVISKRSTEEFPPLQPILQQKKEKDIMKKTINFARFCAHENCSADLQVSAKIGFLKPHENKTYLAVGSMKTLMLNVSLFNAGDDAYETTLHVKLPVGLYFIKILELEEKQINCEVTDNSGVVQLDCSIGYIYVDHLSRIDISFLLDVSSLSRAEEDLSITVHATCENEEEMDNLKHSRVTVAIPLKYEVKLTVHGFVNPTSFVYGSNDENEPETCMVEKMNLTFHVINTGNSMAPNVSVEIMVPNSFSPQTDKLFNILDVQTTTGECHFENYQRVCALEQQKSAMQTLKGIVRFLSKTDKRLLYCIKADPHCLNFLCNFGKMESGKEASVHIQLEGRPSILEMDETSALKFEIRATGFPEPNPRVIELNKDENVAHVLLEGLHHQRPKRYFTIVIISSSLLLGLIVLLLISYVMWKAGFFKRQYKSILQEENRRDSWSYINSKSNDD
α4β1 integrin, sequence (P05556 21-798): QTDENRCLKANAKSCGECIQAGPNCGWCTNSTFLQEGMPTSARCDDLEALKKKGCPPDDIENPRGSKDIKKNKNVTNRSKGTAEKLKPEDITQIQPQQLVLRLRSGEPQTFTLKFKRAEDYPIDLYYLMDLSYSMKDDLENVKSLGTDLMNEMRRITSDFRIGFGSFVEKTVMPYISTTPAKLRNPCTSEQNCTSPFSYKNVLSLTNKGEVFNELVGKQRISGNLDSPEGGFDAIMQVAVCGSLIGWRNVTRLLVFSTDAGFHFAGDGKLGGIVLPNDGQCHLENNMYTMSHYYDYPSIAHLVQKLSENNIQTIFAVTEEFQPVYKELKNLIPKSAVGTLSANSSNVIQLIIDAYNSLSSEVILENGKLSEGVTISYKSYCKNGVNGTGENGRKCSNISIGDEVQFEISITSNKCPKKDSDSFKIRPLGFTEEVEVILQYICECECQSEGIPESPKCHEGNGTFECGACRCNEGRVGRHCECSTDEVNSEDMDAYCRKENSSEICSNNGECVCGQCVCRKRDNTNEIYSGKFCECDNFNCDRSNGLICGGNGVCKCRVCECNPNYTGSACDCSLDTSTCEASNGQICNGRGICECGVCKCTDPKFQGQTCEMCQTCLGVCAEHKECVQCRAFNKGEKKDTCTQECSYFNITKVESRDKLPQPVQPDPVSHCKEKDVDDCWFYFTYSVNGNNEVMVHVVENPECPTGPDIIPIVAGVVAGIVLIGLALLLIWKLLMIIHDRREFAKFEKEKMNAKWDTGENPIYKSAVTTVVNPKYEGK

Turning to `C[C@@H]1C[C@H]2[C@@H]3CCC4=CC(=O)C=C[C@]4(C)[C@@]3(F)[C@@H](O)C[C@]2(C)[C@@]1(O)C(=O)CO` [Dex, dexamethasone], the “Samples with 10% or more empty lacunae” value in [1] is 75%. For the same molecule, the “Histological findings of osteonecrosis with dexamethasone alone” value in data set [2] is listed as “Evidence of osteonecrosis was present throughout the epiphyses of the distal femurs; also recorded: necrotic trabeculae characterized by large empty lacunae”; in data set [2] (listed as dexamethasone), “most of the bone marrow space was occupied by fat”. The Body weight result in data set [3] is reported as “significantly lower”. Besides, the “Incidence of glucocorticoid-induced osteonecrosis” value in data set [4] (day 30) is 57%; in [4] (day 45), 73%. In data set [5] (Dex vs placebo, day 30 and 45 (p<0.05)), the Trabecular thickness result is recorded as “significantly reduced”. For the same molecule, the Trabecular number entry in data set [5] (Dex, day 45 (p<0.05)) is on record as “significantly reduced”. The “Staining intensity of CD31 and Endomucin expression” value in [6] (Dex vs LLP2A-Ale, hPTH (1-34) or placebo, day 30 and 45 (data not shown)) is recorded as “decreased the staining intensity”.
Regarding `Cc1ccccc1NC(=O)Nc1ccc(CC(=O)N[C@@H](CCCCNC(=O)/C=C/c2cccnc2)C(=O)N[C@@H](CCCC(=O)O)C(=O)NC2(C(N)=O)CCCCC2)cc1` [LLP2A], the “Binding to α4β1 integrin (affinity and specificity in words)” value in data set [7] was “high-affinity, high-specificity”.
For “hPTH (1-34): human PTH (1-34), 40 μg/kg five times a week in Example 3 (SVSEIQLMHNLGKHLNSMERVEWLRKKLQDVHNF; Parathyroid hormone; UniProt P01270 32-65, looked up, fragment)”, the “Prevalence/incidence of glucocorticoid-induced osteonecrosis lesions (in words)” value in data set [4] is “prevented incident GC-induced osteonecrosis lesions; also recorded: prevented glucocorticoid-induced osteonecrotic lesions”; in [4] (listed as hPTH), “reduced the incidence and severity of osteonecrosis”. In addition, the Trabecular bone volume entry in data set [5] (day 30 and 45, Dex vs placebo, treated vs Dex (p<0.05)) is “higher bone volume”. In addition, the Trabecular separation entry in data set [5] (vs Dex group, day 30 and 45 (p<0.05)) is listed as “lower trabecular separation”. For the same molecule, the “Vascular integrity of the distal femur” value in data set [6] (30 and 45 day study, conclusion) was “maintained the vascular integrity”.

B1: PTH: parathyroid hormone, anabolic agent; given 20 ug/kg 5× a week in Example 1 (peptide, UniProt P01270 32-115, looked up)
Parathyroid hormone: SVSEIQLMHNLGKHLNSMERVEWLRKKLQDVHNFVALGAPLAPRDAGSQRPRKKEDNVLVESHEKSLGEADKADVNVLTKAKSQ
modifications: Parathyroid hormone
As to B1, the “Blood vessel density of the femur” value in [8] (4 month old male mice, GC 56 days, LLP2A-Ale or PTH from day 28 for 28 days, microCT after sacrifice (FIG. 2)) is recorded as “significantly different from all other groups”. Besides, the “Vascular density of femurs” value in data set [8] (contrast agent at day 56, decalcified femurs scanned by microCT (FIG. 3), vs GC alone) is recorded as “did not exhibit a significant change in vascular density; also recorded: did not significantly change vascular density”. Further, the “Change in trabecular bone mass/volume at the distal femur” value in [9] is given as “increased the trabecular bone volume to the baseline/sham level”.
